Assay [1] concerns southern armyworm (Prodenia eridania, (Cram.)). Nature of the assay: Southern Armyworm Leaf Spray Test. Type of assay: in vivo. The arrangement: key: A: excellent control; B: partial control; C: no control. To be noted: 500 parts per million leaf spray; three days. The protocol: (§1) Suspensions of the test compounds were prepared by dissolving one gram of compound in 50 milliliters of acetone in which had been dissolved 0.1 gram (10 percent of the weight of compound) of an alkylphenoxy polyethoxyethanol surfactant, as an emulsifying or dispersing agent. The resulting solution was mixed into 150 milliliters of water to give roughly 200 milliliters of a suspension containing the compound in finely divided form. The thus-prepared stock suspension contained 0.5 percent by weight of compound. The test concentrations in parts per million by weight employed in the tests described hereinbelow were obtained by appropriate dilutions of the stock suspension with water. The test procedures were as follows:
Larvae of the southern armyworm (Prodenia eridania, (Cram.)), reared on Tendergreen bean plants at a temperature of 80°±5° F. and a relative humidity of 50±5 percent, constituted the test insects.
The test compounds were formulated by diluting the stock suspension with water to give a suspension containing 500 parts of test compound per million parts of final formulation. Potted Tendergreen bean plants of standard height and age were placed on a revolving turntable and sprayed with 100-110 milliliters of test compound formulation by use of a DeVilbiss spray gun set at 10 psig air pressure. This application, which lasted 25 seconds, was sufficient to wet plants to run-off. As a control, 100-110 milliliters of a water-acetone-emulsifier solution containing no test compound were also sprayed on infested plants. When dry, the paired leaves were separated and each one was placed in a 9 centimeter Petri dish lined with moistened filter paper. Five randomly selected larvae were introduced into each dish and the dishes were closed. The closed dishes were labeled and held at 80°-85° F. for three days. Although the larvae could easily consume the whole leaf within twenty-four hours, no more food was added. Larvae which were unable to move the length of the body, even upon stimulation by prodding, were considered dead. Percent mortality was recorded for various concentration levels.

The test system of assay [2] is bean aphid (Aphis fabae Scop.). Nature of the assay: Bean Aphid Foliage Spray Test. It is filed as in vivo. The arrangement: key: A: excellent control; B: partial control; C: no control. To be noted: 500 parts per million foliage spray; 24 hour holding period. The protocol: as §1
Adults and nymphal stages of the bean aphid (Aphis fabae Scop.) reared on potted dwarf nasturtium plants at 65°-70° F. and 50-70 percent relative humidity, constituted the test insects. For testing purposes, the number of aphids per pot was standardized to 100-150 by trimming plants containing excess aphids.
The test compounds were formulated by diluting the stock suspension with water to give a suspension containing 500 parts of test compound per million parts of final formulation.
The potted plants (one pot per compound tested) infested with 100-150 aphids, were placed on a revolving turntable and sprayed with 100-110 milliliters of test compound formulation by use of a DeVilbiss spray gun set at 40 psig. air pressure. This application, which lasted 25 seconds, was sufficient to wet the plants to run-off. As a control, 100-110 milliliters of a water-acetone-emulsifier solution containing no test compound were also sprayed on infested plants. After spraying, the pots were placed on their sides on a sheet of white standard mimeograph paper which had been previously ruled to facilitate counting. Temperature and humidity in the test room during the 24 hour holding period were 65°-70° F. and 50-70 percent, respectively. Aphids which fell onto the paper and were unable to remain standing after being uprighted were considered dead. Aphids remaining on the plants were observed closely for movement and those which were unable to move the length of the body upon stimulation by prodding were considered dead. Percent mortality was recorded for various concentration levels.

The values that follow come from patent US4232035A, “Carbamate pesticidal compounds compositions and methods of use” (priority 1975, dated 1980).

As to `CN(SSC(C)(C)C)C(=O)ON=C1SC(C)(C)C(=O)N1C`, the “S. Armyworm, pesticidal activity rating” value in assay [1] was “A”. In addition, in assay [2], the “Aphid, pesticidal activity rating” value is “A”.

`CN(SSC(C)(C)C)C(=O)ON=C1SCCS1`: the “S. Armyworm, pesticidal activity rating” value in assay [1] is “A”. Besides, the “Aphid, pesticidal activity rating” value in assay [2] is listed as “A”.
